Assays:
[1] = tested on: HAS2; settings: Korean Registered Patent No. 10-1525298; cited from earlier work
[2] = tested on: HaCaT cells; test: MTT cytotoxicity test in HaCaT keratinocytes; format: cell-based, human; settings: for Cytotoxicity: HaCaT cells, AB below 100 µg/mL
Experimental: Cytotoxicity tests were performed using the MTT(3-4,5-dimethylthiazol-2yl)-2,5-diphenyl-2H-tetrazolium bromide) assay. HaCaT cells were cultured in an animal cell incubator at 37° C. and 5% CO2 in a laboratory using Dulbecco's Modified Eagle Medium (DMEM) containing 10% (v/v) FBS, 100 U/mL penicillin, and 100 µg/mL streptomycin as antibiotics. The produced AB was dissolved in DMSO and added to the culture medium at […], and cells were cultured in the medium for 24 hours. The cells were treated with an MTT solution (5 mg/mL) and cultured for another 4 hours, and then an amount of the produced formazan as a blue crystal, was measured by measuring absorbance at 595 nm using an ELISA reader. Toxicity to cells was expressed as a percentage of the average absorbance value of each control group. To investigate the cytotoxicity of AB in HaCaT keratinocytes, when AB was treated at a concentration of […], the degree of change in cell proliferation was calculated compared to control groups treated with only DMSO. The results of Example 1 are shown in A of FIG. 1.
B of FIG. 1 illustrates the presence or absence of a cytotoxic effect when HaCaT keratinocytes are treated with AB according to an example of the present invention. Cell viability was measured to be 100% or more at 100 µg/mL AB.

[3] = tested on: HAS2; test: HAS2 expression in HaCaT cells by Western blot (moisturizing effect); format: cell-based, human; settings: for HAS2 expression compared to L-AHG: same concentration (100 μg/mL, FIG. 7)
Text: Hyaluronan (HA) is a glycosaminoglycan composed of D-glucuronic acid and N-acetyl-D-glucosamine. Due to its ability to retain large amounts of water, HA plays an important role in regulating hydration and osmotic pressure. […] is synthesized in cell membranes by HAS1, HAS2, and HAS3, and HAS2 in particular appears in human normal tissues. […] Therefore, increasing HAS2 expression may be a great strategy to maintain skin homeostasis. To determine the AB induction time and AB concentration for HAS2 expression, Western blot analysis was performed. Cells used for the analysis were HaCaT cells, which were cultured at 37° C. in a 5% CO2 atmosphere using DMEM with 10% FBS and penicillin/streptomycin. Cells (1×10^5) were cultured in 6-cm dishes for 24 hours and then starved in serum-free medium for another 24 hours to remove the FBS effect on the activation of the kinase. Then, AB was treated at a certain time and concentration. Cells were lysed with a lysis buffer [20 mM Tris-HCl (pH 7.5), 150 mM NaCl, 1 mM Na2EDTA, 1 mM EGTA, 1% Triton X-100, 2.5 mM sodium pyrophosphate, 1 mM β-glycerophosphate, 1 mM Na3VO4, […] leupeptin, 1 mM phenylmethylsulfonyl fluoride (PMSF), and a protease inhibitor cocktail tablet]. The protein concentration was measured using a dye-conjugated protein assay kit (Bio-Rad Laboratories Inc.) according to the manufacturer's instructions. Dissolved proteins (20-40 μg) were subjected to 10% SDS-PAGE and transferred to a polyvinylidene fluoride (PVDF) membrane by electrophoresis (Millipore Corp., Bedford, MA, USA). After blotting, the membrane was blocked with 5% skim milk for 2 hours and incubated overnight at 4° C. with a primary antibody […]. Subsequently, the membrane was incubated with a secondary antibody (goat anti-rabbit IgG HRP-conjugated secondary antibody), and the protein bound to the antibody was detected using a chemiluminescence detection kit (Amersham Pharmacia Biotech, Piscataway, NJ). Representative values of two independent experiments were used as data. […] The moisturizing activity of AB was confirmed from the result.

[4] = pH stability (degree of denaturation over time at 25° C.); format: physicochemical; settings: for Stability over time at pH 3: pH 3 (20 mM citrate); for Stability over time at pH 7: pH 7 (20 mM Tris-HCl)
Experimental: The pH stability of AB was assessed (C of FIG. 1). For a pH stability experiment, the degree of denaturation in each sample (AB) over time was measured at 25° C. under conditions of pH 3 (20 mM citrate), pH 7 (20 mM Tris-HCl), and pH 9 (20 mM Tris-HCl). […] Since the buffer and AB peaks were not separated at pH 3 using HPLC, AB was quantified through GC/MS analysis. The derivatization process for GC/MS analysis is as follows. After drying a purified sample with a speed vac, 10 μL of 40 mg/mL O-methylhydroxylamine hydrochloride in pyridine was added and reacted at 30° ° C. and 200 rpm for 90 minutes. Then, 45 μL of N-methyl-N-(trimethylsilyl)trifluoroacetamide was added and reacted at 37° C. and 200 rpm for 30 minutes. Instrument conditions for GC/MS analysis are as follows. A DB5-MS capillary column was used in the analysis, and the GC column temperature condition was maintained at 50° C. for 1 minute and then raised to 280° C. and maintained for 5 minutes. 1 μL of sample was analyzed in a splitless mode. Each concentration of […] at pH 7 and pH 9 was analyzed using HPLC. HPX-87H was used as a column, and the sample was analyzed at a column temperature of 65° C. and a flow rate of 0.5 mL/min. 0.005 M sulfuric acid was used as a mobile phase.

[5] = Temperature stability (denaturation/decomposition over time); format: physicochemical; settings: for Time for which stability was maintained at 4° C. / Time for which stability was maintained at 30° C.: HPLC
Experimental: The temperature stability of agarobiose was tested. The experimental method measured the denaturation/decomposition degrees of AB and ethyl-agarobioside over time at 4° C., 30° C., and 45° C. […] AB and ethyl-agarobioside were quantified using HPLC.

Structure (SMILES) | Moisturizing activity in HaCaT cells (previous study) [1] | Cytotoxicity [2] | HAS2 expression compared to L-AHG [3] | Moisturizing activity (HAS2 expression level) ([3]; same manner as Example 1) | Stability over time at pH 3 [4] | Stability over time at pH 7 [4] | Stability over time at pH 9 ([4]; pH 9 (20 mM Tris-HCl)) | Stability at 45° C. [5] | Time for which stability was maintained at 4° C. [5] [weeks] | Time for which stability was maintained at 30° C. [5] [weeks] | Conversion product at 45° C. ([5]; 45° C., HPLC analysis of reactant components) | Cell viability ([2]; HaCaT keratinocytes, 24 hours, 100 µg/mL AB, vs DMSO control) [%] | HAS2 expression, concentration dependence ([3]; Western blot) | HAS2 expression ([3]; Western blot, 3 hours after treatment) | Time to complete denaturation / decomposition at pH 9 ([4]; pH 9 (20 mM Tris-HCl)) [weeks]
O=C[C@@H](O)[C@@H]1OC[C@H](O)[C@H]1O [L-AHG, 3,6-anhydro-L-galactose] | has moisturizing activity |  |  |  |  |  |  |  |  |  |  |  |  |  | 
CCOC1O[C@H]2CO[C@H]([C@@H]2O[C@@H]2O[C@H](CO)[C@H](O)[C@H](O)[C@H]2O)[C@@H]1O (stereo partly shown) [ethyl-agarobioside] |  | without cytotoxicity | greatly increased | exhibits moisturizing activity | maintained | maintained | maintained | less stable than AB after 6 weeks | 15 | 15 | converted to AB |  |  |  | 
OC[C@H]1O[C@@H](O[C@H]2[C@H]3OC[C@@H]2OC(O)[C@H]3O)[C@H](O)[C@@H](O)[C@H]1O (mixture of isomers) [AB, agarobiose] |  | no cytotoxicity | greatly increased |  | stable | stable |  | stability slowly decreased | 15 | 15 |  | ≥ 100 | increased HAS2 expression in a concentration-dependent manner | increased HAS2 expression | ≤ 6

Source: US20240279263A1, “NOVEL SEA ALGAE-DERIVED ALKYL-AGARBIOSIDE, PREPARATION METHOD THEREFOR, OR USE THEREOF” (KOREA UNIVERSITY RESEARCH AND BUSINESS FOUNDATION, priority 2021, published 2024)
